One assay relates to mice. The assay can be described thus: Mice fed a diet containing mannoheptulose. The format is in vivo. The text has this: (§1) Both of these endpoints are closely related to altered glucose and/or carbohydrate metabolism, similar to that elicited by dietary caloric restriction.
Assay [1] relates to fruit flies and/or nematodes. Put plainly: Lifespan of fruit flies and/or nematodes fed mannoheptulose. The format is in vivo.
Source text: as §1

In assay [2] the test system is older Labrador Retrievers. Put plainly: ADL-Table (jumping onto table platforms) of older dogs. The format is in vivo, Labrador Retriever dogs. The following applies: 2 mg/kg, across all four quarters. Here is the method:
A total of 39 older Labrador Retrievers are fed a nutritionally-balanced composition providing mannoheptulose at levels of 0 or 2 mg/kg of body weight of the dog. Average age of the dogs (12 neutered males, 27 spayed females) at the start of a 4-year study is 6.7 years with a range of 5.1 to 8.2 years of age for the youngest and oldest dog within the cohort, respectively. The 0 mg/kg composition is fed as a nutritionally-balanced control composition (Eukanuba Senior Maintenance Formula) and it contains no mannoheptulose, avocado extract or avocado meal. The 2 mg/kg composition is the nutritionally-balanced control composition formulated with avocado extract to provide mannoheptulose at a dose of 2 mg/kg body weight of the dog. The nutritionally-balanced composition containing 0 mg/kg mannoheptulose is referred to as Diet 1 within this Example. The nutritionally-balanced composition containing 2 mg/kg mannoheptulose is referred to as Diet 2 within this Example. […]
Shoulder height of each individual dog is measured using a tape measure and recorded. […]
The ADL-Table activity requires the dog to jump on to and down from the platform of four tables of graduated heights, starting with the lowest table height first. […] For both activities, dogs are scored for the number of attempts at each graduated height and the successful completion of each height. […]

Take `O=C(CO)[C@@H](O)[C@@H](O)[C@H](O)[C@H](O)CO` [mannoheptulose]: in the assay on mice, the body weight entry is on record as “slightly reduced body weight” and the plasma insulin levels result was “reduced plasma insulin levels”. In addition, the lifespan extension in assay [1] is on record as ~50%. For the same molecule, the “percentage of older dogs successfully jumping onto platforms vs composition devoid of mannoheptulose” value in assay [2] is “a greater percentage of older dogs can successfully jump onto platforms that are 70, 80, 90 and 100% of their shoulder height”.

(Values after US20090252834A1, “Compositions comprising glucose anti-metabolites” (priority 2004, published 2009).)
